Experimental data as given in patent US20110021471A1, “REDUCING Abeta42 LEVELS AND Abeta AGGREGATION” (priority 2007, published 2011).

Experiments:
[1] = test system: 7PA2 cells (CHO cells stably expressing human APP751 V717F); assay: 7PA2 cells: Aβ oligomers (IP/western) and Aβ ELISA; format: cell-based, Chinese hamster
Procedure: FIG. 17. γ-secretase modulators decrease the production of cell derived Aβ oligomers. CHO cells stably expressing human APP751 containing the familial Alzheimer's disease mutation V717F (referred to as 7PA2 cells) were incubated for ˜16 hours in the presence of GSMs. […] Aβ40 levels were decreased to varying degrees (26-35%; Li-Cor Odyssey). (B) and (C) Because the extended incubation times necessary to reliably detect Aβ oligomers in this assay can be toxic, we carried out additional dose response studies with fenofibrate and FT-9 to verify that decreases in Aβ oligomers levels were not related to toxicity or global inhibition of Aβ production. […] (C) Increasing doses of FT-9 reduced the detection of Aβ oligomeric bands and Aβ42 decreased preferentially with decreases in Aβ40 at higher doses. […] Aβ species present in conditioned medium were detected by IP using the polyclonal anti-Aβ antibody, DW6 and subsequent immunoblotting with either 6E10 or the 42-specific, anti-Aβ antibody 21F12. Aβ levels in the samples analyzed via IP/western were also quantified via sandwich ELISA. Data presented as percent vehicle control±s.e.m., n=2.
To address the question of whether GSMs influence the concentration of secreted amyloid-β oligomers, such as those released by Chinese hamster ovary (CHO) cells expressing the APP V717F mutation (referred to as 7PA2 cells), which alter long-term potentiation and perturb the memory of learned behavior when injected into rat brain, 7PA2 cells were treated with two Aβ42-raising GSMs and a novel Aβ42-lowering GSM (FIG. 17) (Walsh et al., Nature 416:535:539 (2002); Calabrese et al., Mol. Cell. Neurosci. 35:183-193 (2007)). Fenofibrate and FT-1 increased amounts of Aβ42 whereas FT-9 lowered Aβ42, but all three GSMs decreased amounts of amyloid-β dimers and trimers. […] In contrast to increased amyloid-β oligomer formation, when CHO cells are genetically manipulated to increase Aβ42 production by co-expression of APP and FAD-linked mutant PSEN1 proteins, both Aβ42-lowering and -raising GSMs decreased oligomer formation (Xia et al., J. Biol. Chem. 272: 7977-7982 (1997)).

APP wild-type cells = assay: Aβ modulation in APP wild-type cells; format: cell-based; parameters: Aβ42 raised: dose or concentration left out as unconfirmed
Procedure: (§1) (A) and (B) The sequences of wildtype (WT; A) APP and the mutated substrate (B) containing the homologous region (italic, underlined) of the NOTCH transmembrane domain (TMD) in APP where GSMs are hypothesized to bind. […] Bottom row, FT-1 ([…]) raised Aβ42 200% in APP wild-type cells (A); however, in APP-NOTCH TMD cells (B), FT-1 caused minimal changes in the Aβ42 (95%) or Aβ40 (90%) signal. Data are presented as amyloid-β percentage of control±s.e.m., n=3.
FIG. 19. Substitution of human Notch sequence in the APP transmembrane domain (TMD) changes sensitivity to modulation. (A) Site-directed mutagenesis was used to exchange the analogous region of the human Notch TMD (bold and underlined) for a section (bold and underlined) of wild-type APP (APPwt) we have shown to be labeled by GSMs. The new substrate (APP-Notch TMD) is cleaved by γ-secretase primarily after valine and alanine residues corresponding to 40 and 42 in APPwt (arrows). […] The beginning (1) N-terminal amino acid (AA) to the ending C-terminal AA is shown above each peak, with the molecular weight (m/z) below. 1-40 and 1-42 are detected as the two major species in APP-Notch TMD conditioned media. It should be noted that the mutagenesis strategy to create APPNotch TMD led to a single AA deletion relative to APPwt. […] Both cell lines were treated (6 hours) with L-685,458 (10 μM), which is hypothesized to target the active site aspartate residues, media was collected, and analyzed for changes in Aβ levels. […]
To test the hypothesis that mutation of the GSM binding site in APP should alter sensitivity to GSMs, a portion of the GSM binding site in APP was exchanged with the analogous region of human NOTCH (FIGS. 18A and 18B; FIG. 19). […] Although the molecular weight and abundance of each chimeric peptide differed from amyloid-β peptides from APP, the main species produced from the APP-NOTCH TMD construct had identical C-termini to Ab1-40 and Ab1-42, and could be quantified by enzyme-linked immunosorbent assays (ELISAs; FIG. 19). […]

APP-NOTCH TMD cells = assay: Aβ modulation in APP-NOTCH TMD cells; format: cell-based, human; parameters: Aβ42 signal (percentage of control) / Aβ40 signal (percentage of control): dose or concentration left out as unconfirmed
Procedure: as §1
FIG. 19. Substitution of human Notch sequence in the APP transmembrane domain (TMD) changes sensitivity to modulation. (A) Site-directed mutagenesis was used to exchange the analogous region of the human Notch TMD (bold and underlined) for a section (bold and underlined) of wild-type APP (APPwt) we have shown to be labeled by GSMs. The new substrate (APP-Notch TMD) is cleaved by γ-secretase primarily after valine and alanine residues corresponding to 40 and 42 in APPwt (arrows). […] The beginning (1) N-terminal amino acid (AA) to the ending C-terminal AA is shown above each peak, with the molecular weight (m/z) below. 1-40 and 1-42 are detected as the two major species in APP-Notch TMD conditioned media. It should be noted that the mutagenesis strategy to create APPNotch TMD led to a single AA deletion relative to APPwt. The correct change in molecular weight caused by the introduced mutations were confirmed by the mass spectrum. For simplicity the peptides are referenced by their C-terminal residues relative to Aβ (40, 42, etc). Representative mass spectra are shown from multiple IP reactions (3) and duplicate spots. […] Both cell lines were treated (6 hours) with L-685,458 (10 μM), which is hypothesized to target the active site aspartate residues, media was collected, and analyzed for changes in Aβ levels. The 40 and 42 Aβ reactive species from both cell lines were inhibited by L-685,458 with equal sensitivity (no significant difference; 40 p>0.5; 42 p>0.4; t test; n=3).
To test the hypothesis that mutation of the GSM binding site in APP should alter sensitivity to GSMs, a portion of the GSM binding site in APP was exchanged with the analogous region of human NOTCH (FIGS. 18A and 18B; FIG. 19). The chimeric construct was used because the NOTCH transmembrane domain (TMD) appears resistant to GSM effects. The APP NOTCH TMD construct produced a spectrum of chimeric amyloid-β species in conditioned cell media (FIG. 19). Although the molecular weight and abundance of each chimeric peptide differed from amyloid-β peptides from APP, the main species produced from the APP-NOTCH TMD construct had identical C-termini to Ab1-40 and Ab1-42, and could be quantified by enzyme-linked immunosorbent assays (ELISAs; FIG. 19). The relative sensitivity to GSMs of APP-NOTCH TMD versus APP was assayed in stably transfected cells. […]

Tg2576 mice = assay: Acute oral dosing of Tg2576 mice, brain soluble Aβ after 4 hours; format: in vivo, mouse
Procedure: FIG. 2. Aβ modulating agents can inhibit Aβ aggregation, and agents that bind Aβ amyloid can modulate Aβ42 production. […] (C) Aβ42 modulating agents inhibit naturally secreted oligomer formation. 7PA2 cells were treated with fenofibrate, FT-1, or FT-9 at 50 μM and oligomers assessed by IP Western blotting. […] (D) FT-9, an Aβ42 reducing agent, can inhibit Aβ42 aggregation in vitro.
FIG. 13. Compounds that bind Aβ are GSMs in vitro and in vivo. (A) A cell-based screen of Aβ-binders identified molecules that increase Aβ42 (DAPH) or decrease Aβ42 (Bis-ANS, X-34 or chrysamine G (CG)). Data are mean±s.e.m., n=3. (B) X-34 is an Aβ42-lowering GSM. Changes in amyloid-β peptide amounts after X-34 treatment are shown. Data are presented as percentage control±s.e.m., n=3. EC50 values were calculated. […] NA, not applicable. (C) X-34 binds to APP(C100)-Flag and decreases labeling by GSM photoprobes. Biotin incorporation into APP by Fen-B and Flurbi-BpB is presented as percentage of control (peptide without X-34)±s.e.m., n=2. (D) X-34 lowers Aβ42 in Tg2576 mice after 4 h. […] Data are presented as amyloid-β percentage of control relative to vehicle±s.e.m. Animals per group (n). Asterisk, P,0.05; two asterisks, P,0.01; ANOVA with Dunnett's post-hoc analysis.
(§2) Finally, X-34 was tested for its ability to modulate Aβ42 amounts in an APP transgenic mouse (Tg2576).

H4Bri-C99 (CTF-3) = conditions: 6 hours
Procedure: FIG. 6. […] Parent GSMs and biotin tagged photoactivatable GSMs were evaluated for their effects on Aβ secreted from H4Bri-C99 (CTF-3). Cells were treated with compounds for 6 hours and Aβ measured by ELISA. […] Changes in Aβ (percent control)±s.e.m., n=3.
Photoaffinity labelling. All experiments used the following general protocol. Samples (recombinant or synthetic peptides, cell lysates and membrane preparations) were exposed in borosilicate test tubes to ultraviolet light (350 nm) in a Rayonet Photoreactor R100 (RPR-3500 lamps, Southern New England Ultra Violet Company) in a cold room (4° C.) for 30 minutes or as otherwise noted. Crosslinked samples were analyzed by ELISA for biotin incorporation, or analyzed directly by SDS-PAGE (Criterion-XT, Bio-Rad), or after precipitation with streptavidin ultralink plus beads (Pierce). After immunblotting, proteins were detected using chemiluminesence (ECL Plus, GEHealthcare) or near-infrared fluorescence (LiCor Odyssey). Full-length APP and APP CTFs (CTF83, CTF99) were detected with CT20, a rabbit polyclonal antibody against the C-terminus of APP. Biotin was detected with an affinity-purified rabbit polyclonal antibody (Bethyl). Cell-based screens for amyloid-β modulation. Human H4 neuroglioma cells (American Type Culture Collection, ATCC) expressing wild-type APP695 protein or CTF105 fused to secreted alkaline phosphatase which is efficiently processed to APP CTFs (CTF83, CTF99) and produce high levels of amyloid-β, were used for the cell-based screens as previously described. Cells were incubated for 5-6 hours in the presence of the various compounds in Opti-Mem culture medium containing 1% fetal bovine serum. Compounds were dissolved in dimethylsulphoxide (DMSO; 0.5% final concentration) and diluted 200-fold. Media was analyzed for various amyloid-β species (40, 42 and total) using ELISAs as described herein. The EC50 values for changes in amyloid-β species were calculated by fitting sigmoid dose-response curves using nonlinear regression in Prism (GraphPad) and are shown as values±s.e.m. Statistical analysis. Data are presented as either percentage control or mean±s.e.m. Results were analyzed using Prism (Graph Pad) with t-tests or one-way analysis of variance analyses (ANOVAs) with Dunnett's post-hoc correction for comparison of multiple samples to a control. Statistical significance is shown as P,0.05 (one asterisk), P,0.01 (two asterisks) or P,0.001 (three asterisks).

γ-secretase = γ-secretase (Homo sapiens, UniProt P49768); assay: GSM activity of compounds that bind Aβ or Aβ amyloid (cell-based or cell-free γ-secretase assays, FIG. 12); conditions: two doses (10 and 100 μM)
Procedure: A literature search was performed to identify compounds reported to bind to the Aβ peptide directly or amyloid. These candidates were initially tested in cell-based assays or cell-free in vitro γ-secretase assays at two doses (10 and 100 μM).
as §2

[2] = FT-9 and FT-1 20 μM, fenofibrate 100 μM, ~16 hours

Structure (SMILES): CC(C#N)c1ccc([N+](=O)[O-])c(Oc2cc(Cl)cc(Cl)c2)c1 (centres unmarked) [FT-1, 2-(3-(3,5-dichlorophenoxy)-4-nitrophenyl)propanenitrile]
- naturally secreted oligomer formation ([1]; 50 μM, IP Western blotting): inhibit oligomer formation
- Aβ42 production in 7PA2 cells [1, 2]: increase production of Aβ42
- dimeric and trimeric Aβ species [1, 2]: reduce production of dimeric and trimeric Aβ species
- Aβ42 raised (APP wild-type cells; APP wild-type cells): 200%
- Aβ40 signal (percentage of control) (APP-NOTCH TMD cells; APP-NOTCH TMD cells): 90%
- Aβ42 signal (percentage of control) (APP-NOTCH TMD cells; APP-NOTCH TMD cells): 95%

Structure (SMILES): CC(C)C[C@H](NC(=O)[C@H](Cc1ccccc1)C[C@@H](O)[C@H](Cc1ccccc1)NC(=O)OC(C)(C)C)C(=O)N[C@@H](Cc1ccccc1)C(N)=O [L-685,458]
- 40 and 42 Aβ reactive species (APP wild-type cells; 10 μM, 6 hours, APPwt): inhibited
- 40 and 42 Aβ reactive species (APP-NOTCH TMD cells; 10 μM, 6 hours, APP-Notch TMD): inhibited

Structure (SMILES): C[C@H](NC(=O)[C@@H](O)c1cc(F)cc(F)c1)C(=O)N[C@@H]1C(=O)N(C)c2ccccc2-c2ccccc21 [LY-411575]
- selectivity of Aβ reduction (Aβ42 vs Aβ40) (Tg2576 mice; Tg2576, oral gavage, 4 hours): reduces Aβ40 preferentially

Structure (SMILES): C[C@@H](C(=O)O)c1ccc(-c2ccccc2)c(F)c1 [Tarenflurbil]
- lowering of Aβ42 in the brains (Tg2576 mice; 50 mg kg21, Tg2576 mice, 4 h): 25%
- Aβ42 (direction of change) (H4Bri-C99 (CTF-3)): lowered Aβ42
- total Aβ levels (H4Bri-C99 (CTF-3)): without decreasing total Aβ levels

Structure (SMILES): Clc1ccc(C(c2ccc(Cl)cc2)n2cc[n+](CC(OCc3ccc(Cl)cc3Cl)c3ccc(Cl)cc3Cl)c2)cc1 (centres unmarked) [calmidazolium]
- GSM activity (γ-secretase): Aβ42-raising

Structure (SMILES): COc1ccc2[nH]cc(CCNC(C)=O)c2c1 [melatonin]
- GSM activity (γ-secretase): did not act as GSMs
